In ChEMBL document CHEMBL4725259 (Bioorg Med Chem, 2020):
Calls of active or inactive are those of the source. No cut-off for these calls is given here.

Experiments:
Oxytocin receptor = molecular target: T1, Oxytocin receptor (Homo sapiens, UniProt P30559); test: Antagonist activity at human OXTR expressed in CHO-K1 cells by PathHunter beta-arrestin assay; assay type: cell-based
T1 sequence (P30559 whole entry): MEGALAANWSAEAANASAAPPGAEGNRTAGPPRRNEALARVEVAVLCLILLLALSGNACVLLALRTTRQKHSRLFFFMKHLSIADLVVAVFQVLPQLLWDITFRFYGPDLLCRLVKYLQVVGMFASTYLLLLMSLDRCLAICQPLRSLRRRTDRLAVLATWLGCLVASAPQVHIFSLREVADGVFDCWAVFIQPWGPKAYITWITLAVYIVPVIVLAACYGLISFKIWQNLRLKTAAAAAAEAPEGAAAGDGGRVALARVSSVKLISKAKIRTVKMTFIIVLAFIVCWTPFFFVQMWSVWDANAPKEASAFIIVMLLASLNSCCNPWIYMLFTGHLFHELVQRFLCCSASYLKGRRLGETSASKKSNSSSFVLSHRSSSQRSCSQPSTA

[1] = molecular target: T2, CX3C chemokine receptor 1 (Homo sapiens) (UniProt P49238); test: Agonist activity at human CX3CR1 expressed in CHO-K1 cells at 20 uM by PathHunter beta-arrestin assay relative to control; assay type: cell-based
T2 sequence (whole entry): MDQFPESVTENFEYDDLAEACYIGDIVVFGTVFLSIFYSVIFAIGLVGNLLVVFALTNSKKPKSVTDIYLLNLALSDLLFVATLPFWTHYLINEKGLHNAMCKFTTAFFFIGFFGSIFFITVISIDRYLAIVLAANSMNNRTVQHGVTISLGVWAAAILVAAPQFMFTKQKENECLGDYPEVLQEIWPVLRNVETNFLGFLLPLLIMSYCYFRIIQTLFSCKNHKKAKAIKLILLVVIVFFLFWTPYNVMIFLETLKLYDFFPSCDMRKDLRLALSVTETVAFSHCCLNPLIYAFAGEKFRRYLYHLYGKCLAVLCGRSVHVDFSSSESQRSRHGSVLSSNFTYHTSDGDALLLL

[2] = molecular target: T3, Follicle-stimulating hormone receptor (Homo sapiens) (UniProt P23945); test: Agonist activity at human FSHR expressed in CHO-K1 cells at 20 uM by PathHunter beta-arrestin assay relative to control; assay type: cell-based
T3 sequence (whole entry): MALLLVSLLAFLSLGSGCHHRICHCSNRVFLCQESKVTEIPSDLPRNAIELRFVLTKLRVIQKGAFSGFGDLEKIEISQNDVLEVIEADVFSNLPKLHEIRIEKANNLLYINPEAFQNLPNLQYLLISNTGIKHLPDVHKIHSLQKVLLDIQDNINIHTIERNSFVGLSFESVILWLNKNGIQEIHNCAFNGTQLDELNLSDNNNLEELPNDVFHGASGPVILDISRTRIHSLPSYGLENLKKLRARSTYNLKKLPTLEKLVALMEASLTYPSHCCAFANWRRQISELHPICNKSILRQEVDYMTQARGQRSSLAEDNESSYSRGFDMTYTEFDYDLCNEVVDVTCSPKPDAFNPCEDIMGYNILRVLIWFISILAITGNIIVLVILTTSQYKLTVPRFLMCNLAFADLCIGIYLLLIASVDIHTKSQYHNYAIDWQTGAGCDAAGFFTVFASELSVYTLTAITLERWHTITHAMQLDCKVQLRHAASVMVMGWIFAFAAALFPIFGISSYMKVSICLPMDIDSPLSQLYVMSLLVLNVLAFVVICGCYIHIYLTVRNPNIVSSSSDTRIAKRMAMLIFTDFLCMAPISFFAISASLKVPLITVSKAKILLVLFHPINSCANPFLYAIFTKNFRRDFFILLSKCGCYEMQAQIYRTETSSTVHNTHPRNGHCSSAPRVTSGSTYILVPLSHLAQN

[3] = molecular target: T4, Prolactin-releasing peptide receptor (Homo sapiens) (UniProt P49683); test: Agonist activity at human PRLHR expressed in CHO-K1 cells at 20 uM by PathHunter beta-arrestin assay relative to control; assay type: cell-based
T4 sequence (whole entry): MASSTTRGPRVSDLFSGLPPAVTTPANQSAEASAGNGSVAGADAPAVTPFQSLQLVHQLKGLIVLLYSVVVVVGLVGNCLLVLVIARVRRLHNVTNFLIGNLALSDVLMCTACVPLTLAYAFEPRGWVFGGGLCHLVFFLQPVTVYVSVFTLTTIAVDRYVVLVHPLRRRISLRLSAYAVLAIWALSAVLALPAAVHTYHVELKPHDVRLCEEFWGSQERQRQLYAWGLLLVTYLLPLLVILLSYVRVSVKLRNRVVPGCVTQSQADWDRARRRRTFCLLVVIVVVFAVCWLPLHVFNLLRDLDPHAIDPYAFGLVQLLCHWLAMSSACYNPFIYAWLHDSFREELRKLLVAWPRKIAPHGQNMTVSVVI

Vasopressin V2 receptor [4] = molecular target: T5, Vasopressin V2 receptor (Homo sapiens, UniProt P30518); test: Antagonist activity at human AVPR2 at 20 uM by PathHunter beta-arrestin assay relative to control
Vasopressin V2 receptor [5] = molecular target: T5, Vasopressin V2 receptor; test: Agonist activity at human AVPR2 at 20 uM by PathHunter beta-arrestin assay relative to control
[6] = molecular target: T3, Follicle-stimulating hormone receptor (Homo sapiens); test: Antagonist activity at human FSHR expressed in CHO-K1 cells at 20 uM by PathHunter beta-arrestin assay relative to control; assay type: cell-based; details: filed as antagonist
[7] = molecular target: T6, C-C chemokine receptor type 8 (Homo sapiens, UniProt P51685); test: Agonist activity at human CCR8 expressed in CHO-K1 cells at 20 uM by PathHunter beta-arrestin assay relative to control; assay type: cell-based
[8] = molecular target: D(2) dopamine receptor (Homo sapiens) (UniProt P14416); test: Antagonist activity at human DRD2L expressed in CHO-K1 cells at 20 uM by PathHunter beta-arrestin assay relative to control; assay type: cell-based
[9] = molecular target: T7, C-C chemokine receptor type 3 (Homo sapiens) (UniProt P51677); test: Antagonist activity at human CCR3 expressed in CHO-K1 cells at 20 uM by PathHunter beta-arrestin assay relative to control; assay type: cell-based
T7 sequence (whole entry): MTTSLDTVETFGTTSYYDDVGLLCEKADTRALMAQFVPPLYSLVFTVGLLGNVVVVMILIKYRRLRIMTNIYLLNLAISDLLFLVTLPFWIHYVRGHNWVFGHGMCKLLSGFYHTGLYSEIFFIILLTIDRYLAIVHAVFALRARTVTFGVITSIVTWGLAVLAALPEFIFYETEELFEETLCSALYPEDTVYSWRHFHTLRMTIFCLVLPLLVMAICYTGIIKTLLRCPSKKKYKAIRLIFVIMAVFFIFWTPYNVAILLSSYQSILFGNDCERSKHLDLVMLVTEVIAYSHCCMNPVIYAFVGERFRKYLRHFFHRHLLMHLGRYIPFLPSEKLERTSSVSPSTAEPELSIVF

[10] = molecular target: T8, C-X-C chemokine receptor type 4 (Homo sapiens, UniProt P61073); test: Agonist activity at human CXCR4 expressed in mouse C2C12 cells at 20 uM by PathHunter beta-arrestin assay relative to control; assay type: cell-based
[11] = molecular target: T9, Oxytocin receptor (Homo sapiens) (UniProt P30559); test: Antagonist activity at human OXTR expressed in CHO-K1 cells at 20 uM by PathHunter beta-arrestin assay relative to control; assay type: cell-based
T9 sequence (whole entry): T1 sequence (P30559 whole entry)

[12] = molecular target: T4, Prolactin-releasing peptide receptor (Homo sapiens); test: Antagonist activity at human PRLHR expressed in CHO-K1 cells at 20 uM by PathHunter beta-arrestin assay relative to control; assay type: cell-based; details: filed as antagonist
U2OS [13] = test: Agonist activity at NPSR1B in human U2OS cells at 20 uM by PathHunter beta-arrestin assay relative to control; assay type: cell-based
[14] = molecular target: T7, C-C chemokine receptor type 3 (Homo sapiens); test: Agonist activity at human CCR3 expressed in CHO-K1 cells at 20 uM by PathHunter beta-arrestin assay relative to control; assay type: cell-based
[15] = molecular target: T2, CX3C chemokine receptor 1 (Homo sapiens); test: Antagonist activity at human CX3CR1 expressed in CHO-K1 cells at 20 uM by PathHunter beta-arrestin assay relative to control; assay type: cell-based; details: filed as antagonist
[16] = molecular target: D(2) dopamine receptor (Homo sapiens) (UniProt P14416); test: Agonist activity at human DRD2L expressed in CHO-K1 cells at 20 uM by PathHunter beta-arrestin assay relative to control; assay type: cell-based
[17] = molecular target: T6, C-C chemokine receptor type 8; test: Antagonist activity at human CCR8 expressed in CHO-K1 cells at 20 uM by PathHunter beta-arrestin assay relative to control; assay type: cell-based; details: filed as antagonist
[18] = molecular target: T9, Oxytocin receptor (Homo sapiens); test: Agonist activity at human OXTR expressed in CHO-K1 cells at 20 uM by PathHunter beta-arrestin assay relative to control; assay type: cell-based
U2OS [19] = test: Antagonist activity at NPSR1B in human U2OS cells at 20 uM by PathHunter beta-arrestin assay relative to control; assay type: cell-based
[20] = molecular target: T8, C-X-C chemokine receptor type 4; test: Antagonist activity at human CXCR4 expressed in mouse C2C12 cells at 20 uM by PathHunter beta-arrestin assay relative to control; assay type: cell-based; details: filed as antagonist
[21] = molecular target: T10, Prolactin-releasing peptide receptor (Homo sapiens, UniProt P49683); test: Antagonist activity at human PRLHR expressed in CHO-K1 cells by PathHunter beta-arrestin assay; assay type: cell-based
T10 sequence (P49683 whole entry): T4 sequence (whole entry)

[22] = molecular target: T11, Follicle-stimulating hormone receptor (Homo sapiens, UniProt P23945); test: Antagonist activity at human FSHR expressed in CHO-K1 cells by PathHunter beta-arrestin assay; assay type: cell-based
T11 sequence (P23945 whole entry): T3 sequence (whole entry)

[23] = Antagonist activity at NPSR1B in human U2OS cells by PathHunter beta-arrestin assay; assay type: cell-based

T6 sequence (P51685 whole entry): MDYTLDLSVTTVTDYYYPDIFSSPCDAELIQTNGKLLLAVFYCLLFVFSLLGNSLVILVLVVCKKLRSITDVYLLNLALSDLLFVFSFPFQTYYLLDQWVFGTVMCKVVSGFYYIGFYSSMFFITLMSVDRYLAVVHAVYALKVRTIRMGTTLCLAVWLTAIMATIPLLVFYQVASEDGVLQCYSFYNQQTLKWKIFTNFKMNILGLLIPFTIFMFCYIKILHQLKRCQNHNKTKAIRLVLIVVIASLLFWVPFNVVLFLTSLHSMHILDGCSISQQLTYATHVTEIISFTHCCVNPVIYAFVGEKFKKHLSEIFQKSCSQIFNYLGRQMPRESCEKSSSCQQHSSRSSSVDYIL
Sequence of D(2) dopamine receptor (Homo sapiens) (P14416 whole entry): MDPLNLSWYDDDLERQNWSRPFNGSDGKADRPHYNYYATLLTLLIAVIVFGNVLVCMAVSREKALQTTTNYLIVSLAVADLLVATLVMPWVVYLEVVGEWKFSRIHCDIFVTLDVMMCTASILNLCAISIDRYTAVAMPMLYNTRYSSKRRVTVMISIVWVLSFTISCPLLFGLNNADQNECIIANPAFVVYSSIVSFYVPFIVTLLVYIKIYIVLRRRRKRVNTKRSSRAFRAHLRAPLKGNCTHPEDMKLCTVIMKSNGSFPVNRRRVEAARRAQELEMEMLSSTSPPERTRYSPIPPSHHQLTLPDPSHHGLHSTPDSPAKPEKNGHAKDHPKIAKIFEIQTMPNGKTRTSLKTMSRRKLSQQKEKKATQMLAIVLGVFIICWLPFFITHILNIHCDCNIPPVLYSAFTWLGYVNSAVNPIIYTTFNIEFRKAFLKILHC
T5 sequence (P30518 whole entry): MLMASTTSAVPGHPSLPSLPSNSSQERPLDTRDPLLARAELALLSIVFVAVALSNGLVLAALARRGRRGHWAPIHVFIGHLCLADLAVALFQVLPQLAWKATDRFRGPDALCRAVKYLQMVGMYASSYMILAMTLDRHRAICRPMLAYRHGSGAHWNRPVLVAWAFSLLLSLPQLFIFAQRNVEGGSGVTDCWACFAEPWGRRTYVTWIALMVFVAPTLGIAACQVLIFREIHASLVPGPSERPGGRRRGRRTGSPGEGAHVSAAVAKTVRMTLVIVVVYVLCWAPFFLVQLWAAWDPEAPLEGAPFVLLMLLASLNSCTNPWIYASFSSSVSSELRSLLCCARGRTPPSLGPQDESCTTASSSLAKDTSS
T8 sequence (P61073 whole entry): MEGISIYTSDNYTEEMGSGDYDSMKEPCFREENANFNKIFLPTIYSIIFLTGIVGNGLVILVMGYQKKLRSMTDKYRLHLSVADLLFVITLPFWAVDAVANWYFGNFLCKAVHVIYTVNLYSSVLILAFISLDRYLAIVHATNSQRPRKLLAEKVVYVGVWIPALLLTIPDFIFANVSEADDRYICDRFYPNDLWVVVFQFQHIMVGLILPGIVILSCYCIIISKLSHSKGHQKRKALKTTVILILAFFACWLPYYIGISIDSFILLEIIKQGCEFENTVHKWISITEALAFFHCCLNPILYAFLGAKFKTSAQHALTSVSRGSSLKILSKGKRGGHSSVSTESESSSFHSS

SMILES	Activity [1]	Activity [2]	Activity [3]	Activity (Vasopressin V2 receptor [5])	inhibition [6]	Activity [7]	Activity [10]	Activity [14]	inhibition [15]	Activity [16]	inhibition [17]	Activity [18]	inhibition [11]	inhibition (Vasopressin V2 receptor [4]; filed as antagonist)	inhibition [12]	Activity (U2OS [13])	also measured
Cc1ccccc1N1CCN(S(=O)(=O)CC23CCC(C[C@@H]2NC(=O)[C@@H](N)CCS(C)(=O)=O)C3(C)C)CC1 (some centres undefined)	–	–	–	–	–	–	–	–	–	–	–	–	–	–	–	–	IC50 (Oxytocin receptor): 0.00462 µM
COC(=O)[C@@H]1[C@H]2C[C@@H]3N(CC[C@@]34C(=O)N(c3cncc(OC)n3)c3ccccc34)C[C@@H]2CC[C@@H]1O	inactive	inactive	inactive	inactive	11%	inactive	inactive	inactive	9%	inactive	9%	inactive	–	9%	2%	inactive	inhibition [8]: -8%; inhibition [9]: -7%
COC(=O)[C@@H]1[C@H]2C[C@@H]([C@@]3(CCn4cc(CCCCO)nn4)C(=O)Nc4ccccc43)N(C#N)C[C@@H]2CC[C@@H]1O	inactive	inactive	inactive	inactive	2%	inactive	inactive	inactive	11%	inactive	5%	inactive	0%	1%	9%	inactive	–

Continued, in another order:

Activity [1]	Activity [2]	Activity [3]	Activity (Vasopressin V2 receptor [5])	inhibition [6]	Activity [7]	Activity [10]	Activity [14]	inhibition [15]	Activity [16]	inhibition [17]	Activity [18]	inhibition [11]	SMILES	inhibition (Vasopressin V2 receptor [4]; filed as antagonist)	inhibition [12]	Activity (U2OS [13])	also measured
inactive	inactive	inactive	inactive	5%	inactive	inactive	inactive	20%	inactive	15%	inactive	–	COC(=O)[C@@H]1[C@H]2C[C@@H]3OCc4ccccc4-n4c3c(c3ccccc34)CCN(C#N)C[C@@H]2CC[C@@H]1O	16%	5%	inactive	inhibition ([8]; filed as antagonist): 3%; inhibition ([9]; filed as antagonist): 2%; inhibition ([11]; filed as antagonist): 27%
inactive	inactive	inactive	inactive	4%	inactive	inactive	inactive	22%	inactive	–	inactive	–	COC(=O)[C@@H]1[C@H]2C[C@H]3c4[nH]c5ccccc5c4CCN3C[C@@H]2CC[C@@H]1O	–	–	inactive	inhibition (Vasopressin V2 receptor [4]): -1%; inhibition (U2OS [19]): -3%; inhibition ([11]; filed as antagonist): 5%
inactive	inactive	inactive	inactive	12%	inactive	inactive	inactive	9%	inactive	10%	inactive	0%	COC(=O)[C@@H]1[C@H]2C[C@H]3OCc4ccccc4-n4c3c(c3ccccc34)CCN(C#N)C[C@@H]2CC[C@@H]1O	–	–	inactive	inhibition [20]: 10%; inhibition (Vasopressin V2 receptor [4]): -1%; inhibition [8]: -2%; inhibition [9]: -2%; inhibition (U2OS [19]; filed as antagonist): 1%
inactive	inactive	inactive	inactive	94%	inactive	inactive	inactive	53%	inactive	78%	inactive	-7%	COC(=O)[C@@H]1[C@H]2C[C@@H](OCc3ccc(Br)cc3)c3[nH]c4ccccc4c3CCN(C#N)C[C@@H]2CC[C@@H]1O	1%	82%	inactive	inhibition [20]: 29%; IC50 [21]: 4.89 µM; inhibition ([8]; filed as antagonist): 10%; inhibition ([9]; filed as antagonist): 50%; inhibition (U2OS [19]; filed as antagonist): 87%; IC50 [22]: 8.03 µM; IC50 [23]: 10.3 µM
